Calls of active or inactive are those of the source. The rule behind the calls is not given here.
Tested on: rodent carcinogenicity bioassays, tumor incidence
Test: CCRIS carcinogenicity studies
Procedure, shortened: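 NCI-built, expert-reviewed records of carcinogenicity and related test outcomes (mutagenicity, tumor promotion/inhibition) compiled from published and report sources, historical span 1985-2011, not updated.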

Question: With O=C1C(c2[nH]c3ccc(S(=O)(=O)O)cc3c2O)=Nc2ccc(S(=O)(=O)O)cc21 as the compound, how does the carcinogen call (Species: DOG, Strain/Sex: BEAGLE/MALE, FEMALE, Route: ORAL, Dose: 0, 1, 2% IN DIET FOR 2 YR, Dose: 0, 1, 2% IN DIET FOR 2 YR) read?
Answer: inactive; negative

Question: And the carcinogen call (Species: MOUSE, Strain/Sex: C3H AND C57/MALE, FEMALE, Route: SUBCUTANEOUS, Dose: 0, 2.5 MG AS A 1% AQUEOUS SOLUTION 1/WK FOR 2 YR)?
Answer: inactive; negative

Question: What about the carcinogen call (Species: MOUSE, Strain/Sex: CD-1/FEMALE, Route: ORAL, Dose: 0, 0.5, 1.5, 5% IN DIET FOR 23 MO (STUDY DURATION: 24 MO), Dose: 0, 0.5, 1.5, 5% IN DIET FOR 23 MO (STUDY DURATION: 24 MO)) of the same compound?
Answer: inactive; negative

Question: What about the carcinogen call (Species: MOUSE, Strain/Sex: CD-1/MALE, Route: ORAL, Dose: 0, 0.5, 1.5, 5% IN DIET FOR 22 MO (STUDY DURATION: 24 MO), Dose: 0, 0.5, 1.5, 5% IN DIET FOR 22 MO (STUDY DURATION: 24 MO)) of the same compound?
Answer: inactive; negative

Question: What about the carcinogen call (Species: RAT, Strain/Sex: OSBORNE-MENDEL/MALE, FEMALE, Route: ORAL, Dose: 0, 0.5, 1.0, 2.0, 5.0% IN DIET FOR 2 YR, Dose: 0, 0.5, 1.0, 2.0, 5.0% IN DIET FOR 2 YR) of the same compound?
Answer: inactive; negative

Question: And the carcinogen call (Species: RAT, Strain/Sex: OSBORNE-MENDEL/MALE, FEMALE, Route: SUBCUTANEOUS, Dose: 0, 20 MG AS A 2% AQUEOUS SOLUTION 1/WK FOR 2 YR, Tumor Site: Type of Lesion: INJECTION SITE: FIBROSARCOMA)?
Answer: active; positive

Question: What about the carcinogen call (Species: RAT, Strain/Sex: STRAIN-CD/FEMALE, Route: ORAL, Dose: 0, 0.5, 1, 2% IN DIET FOR 30 MO TO ANIMALS ALSO EXPOSED IN UTERO THROUGH THE SAME DOSES ADMINISTERED TO PARENTS BEGINNIN, Dose: 0, 0.5, 1, 2% IN DIET FOR 30 MO TO ANIMALS ALSO EXPOSED IN UTERO THROUGH THE SAME DOSES ADMINISTERED TO PARENTS BEGINNIN) of the same compound?
Answer: inactive; negative

Question: And the carcinogen call (Species: RAT, Strain/Sex: STRAIN-CD/MALE, Route: ORAL, Dose: 0, 0.5, 1, 2% IN DIET FOR 29 MO TO ANIMALS ALSO EXPOSED IN UTERO THROUGH THE SAME DOSES ADMINISTERED TO PARENTS BEGINNIN, Dose: 0, 0.5, 1, 2% IN DIET FOR 29 MO TO ANIMALS ALSO EXPOSED IN UTERO THROUGH THE SAME DOSES ADMINISTERED TO PARENTS BEGINNIN)?
Answer: inactive; negative

Question: With c1ccc2c(c1)cc1c3ccccc3c3cccc4ccc2c1c43 as the compound, how does the carcinogen call (Species: MOUSE, Route: DERMAL, Tumor Site: Type of Lesion: INTEGUMENTARY SYSTEM (SKIN)) read?
Answer: active; positive

Question: What about the carcinogen call (Species: MOUSE, Route: SUBCUTANEOUS, Tumor Site: Type of Lesion: INJECTION SITE) of the same compound?
Answer: active; positive

Question: What does the source list for COc1ccc(CCN2CCC(Nc3nc4ccccc4n3Cc3ccc(F)cc3)CC2)cc1?
Answer: carcinogen call (Species: MOUSE, Strain/Sex: SWISS/FEMALE, Route: ORAL, Dose: 0, 2.5, 10, 40 MG/100 G OF DIET FOR DURATION OF STUDY (STUDY DURATION: 18 Mo), Dose: 0, 2.5, 10, 40 MG/100 G OF DIET FOR DURATION OF STUDY (STUDY DURATION: 18 Mo)): inactive; negative; carcinogen call (Species: MOUSE, Strain/Sex: SWISS/MALE, Route: ORAL, Dose: 0, 2.5, 10, 40 MG/100 G OF DIET FOR DURATION OF STUDY (STUDY DURATION: 18 MO), Dose: 0, 2.5, 10, 40 MG/100 G OF DIET FOR DURATION OF STUDY (STUDY DURATION: 18 MO)): inactive; negative; carcinogen call (Species: RAT, Strain/Sex: WISTAR/FEMALE, Route: ORAL, Dose: 0, 5, 20, 80 MG/100 G OF DIET FOR DURATION OF STUDY (STUDY DURATION: 2 YR), Dose: 0, 5, 20, 80 MG/100 G OF DIET FOR DURATION OF STUDY (STUDY DURATION: 2 YR)): inactive; negative; carcinogen call (Species: RAT, Strain/Sex: WISTAR/MALE, Route: ORAL, Dose: 0, 5, 20, 80 MG/100 G OF DIET FOR DURATION OF STUDY (STUDY DURATION: 2 YR), Dose: 0, 5, 20, 80 MG/100 G OF DIET FOR DURATION OF STUDY (STUDY DURATION: 2 YR)): inactive; negative

Question: Which results are given for CCN=c1cc2oc3cc(NCC)c(C)cc3c(-c3ccccc3C(=O)OCC)c-2cc1C?
Answer: carcinogen call (Species: MOUSE, Strain/Sex: B6C3F1/FEMALE, Route: ORAL, Dose: 0, 500, 1000 PPM IN FEED FOR 103 WK (STUDY DURATION: 105 WK), Dose: 0, 500, 1000 PPM IN FEED FOR 103 WK (STUDY DURATION: 105 WK)): inactive; negative; carcinogen call (Species: MOUSE, Strain/Sex: B6C3F1/MALE, Route: ORAL, Dose: 0, 1000, 2000 PPM IN FEED FOR 103 WK (STUDY DURATION: 105 WK), Dose: 0, 1000, 2000 PPM IN FEED FOR 103 WK (STUDY DURATION: 105 WK)): inactive; negative; carcinogen call (Species: RAT, Strain/Sex: F344/FEMALE, Route: ORAL, Dose: 0, 120, 250 PPM IN FEED FOR 103 WK (STUDY DURATION: 105 WK), Dose: 0, 120, 250 PPM IN FEED FOR 103 WK (STUDY DURATION: 105 WK), Tumor Site: Type of Lesion: ADRENAL GLAND: PHEOCHROMOCYTOMA OR MALIGNANT PHEOCHROMOCYTOMA): equivocal; carcinogen call (Species: RAT, Strain/Sex: F344/MALE, Route: ORAL, Dose: 0, 120, 250 PPM IN FEED FOR 103 WK (STUDY DURATION: 105 WK), Dose: 0, 120, 250 PPM IN FEED FOR 103 WK (STUDY DURATION: 105 WK), Tumor Site: Type of Lesion: INTEGUMENTARY SYSTEM: KERATOACANTHOMA): equivocal

Question: c1ccc2c3c4c(cccc4cc2c1)CC3 was tested. Which carcinogen call (Species: MOUSE, Strain/Sex: BLU:HA/FEMALE, Route: INTRAPERITONEAL, Dose: 0, 175 UG/KG/D ON DAYS 1 (1/7 TOTAL DOSE), 8 (2/7 TOTAL DOSE), AND 15 (4/7 TOTAL DOSE) AFTER BIRTH (STUDY DURATION: 9 MO) did it give?
Answer: inactive; negative

Question: And the carcinogen call (Species: MOUSE, Strain/Sex: BLU:HA/MALE, Route: INTRAPERITONEAL, Dose: 0, 175 UG/KG/D ON DAYS 1 (1/7 TOTAL DOSE), 8 (2/7 TOTAL DOSE), AND 15 (4/7 TOTAL DOSE) AFTER BIRTH (STUDY DURATION: 9 MO)?
Answer: inactive; negative

Question: And the carcinogen call (Species: MOUSE, Strain/Sex: CD-1/FEMALE, Route: INTRAPERITONEAL, Dose: 0, 175, 437.5, 875 UG/KG/D ON DAYS 1 (1/7 TOTAL DOSE), 8 (2/7 TOTAL DOSE), AND 15 (4/7 TOTAL DOSE) AFTER BIRTH (STUDY DU, Dose: 0, 175, 437.5, 875 UG/KG/D ON DAYS 1 (1/7 TOTAL DOSE), 8 (2/7 TOTAL DOSE), AND 15 (4/7 TOTAL DOSE) AFTER BIRTH (STUDY DU)?
Answer: inactive; negative

Question: What about the carcinogen call (Species: MOUSE, Strain/Sex: CD-1/MALE, Route: INTRAPERITONEAL, Dose: 0, 175, 437.5, 875 UG/KG/D ON DAYS 1 (1/7 TOTAL DOSE), 8 (2/7 TOTAL DOSE), AND 15 (4/7 TOTAL DOSE) AFTER BIRTH (STUDY DU, Dose: 0, 175, 437.5, 875 UG/KG/D ON DAYS 1 (1/7 TOTAL DOSE), 8 (2/7 TOTAL DOSE), AND 15 (4/7 TOTAL DOSE) AFTER BIRTH (STUDY DU, Tumor Site: Type of Lesion: LUNG: ADENOMA OR ADENOCARCINOMA) of the same compound?
Answer: active; positive

Question: How did the carcinogen call (Species: MOUSE, Strain/Sex: C3H/HEN/FEMALE, Route: DERMAL, Dose: 0, 250 UG IN 70% ETHANOL 3/WK FOR 48 WK (STUDY DURATION: 68 WK)) turn out when Cc1cc(=O)oc2c1cc(C)c1occ(C)c12 was run?
Answer: inactive; negative

Question: For CNC(=O)c1c(N(C)N=O)ncn1C, which carcinogen call (Species: RAT, Strain/Sex: BD-IX/MALE, FEMALE, Route: ORAL, Dose: 0, 3, 5, 15 MG/KG/D IN DRINKING WATER 5D/WK FOR DURATION OF STUDY (STUDY DURATION: LIFETIME), Dose: 0, 3, 5, 15 MG/KG/D IN DRINKING WATER 5D/WK FOR DURATION OF STUDY (STUDY DURATION: LIFETIME), Tumor Site: Type of Lesion: NASAL CAVITY: TUMOR) is on record?
Answer: active; positive

Question: For O[C@H]1[C@@H]2O[C@@H]2C=C[C@@H]1O, which carcinogen call (Species: MOUSE, Strain/Sex: SWISS/FEMALE, Route: INTRAPERITONEAL, Dose: 0, 2.7, 13.7 UMOL ADMINISTERED AS 3 UNEQUAL DOSES (1/7, 2/7, AND 4/7 OF THE TOTAL DOSE) OVER A 2-WK PERIOD (STUDY DURATI, Dose: 0, 2.7, 13.7 UMOL ADMINISTERED AS 3 UNEQUAL DOSES (1/7, 2/7, AND 4/7 OF THE TOTAL DOSE) OVER A 2-WK PERIOD (STUDY DURATI) is on record?
Answer: inactive; negative

Question: And the carcinogen call (Species: MOUSE, Strain/Sex: SWISS/MALE, Route: INTRAPERITONEAL, Dose: 0, 2.7, 13.7 UMOL ADMINISTERED AS 3 UNEQUAL DOSES (1/7, 2/7, AND 4/7 OF THE TOTAL DOSE) OVER A 2-WK PERIOD (STUDY DURATI, Dose: 0, 2.7, 13.7 UMOL ADMINISTERED AS 3 UNEQUAL DOSES (1/7, 2/7, AND 4/7 OF THE TOTAL DOSE) OVER A 2-WK PERIOD (STUDY DURATI)?
Answer: inactive; negative

From PubChem BioAssay AID1259411 (Chemical Carcinogenesis Research Information System (CCRIS), 2018)
